Measured values as given in patent US9555130B2, “Compositions and methods for in vivo imaging of myelin in the peripheral nervous system” (Case Western Reserve University, priority 2010, dated 2017).

Legend:
[1] = test system: sciatic nerve (PNS myelin); assay: In vitro staining of sciatic nerve tissue sections, fluorescent microscopy; set-up: species or system wild type mouse; settings: tissue section of sciatic nerve with surrounding muscle; confirmed by Black and Gold staining of adjacent section
Source text: In Vitro Staining Procedure: (1) Removal of wild type mouse sciatic nerve imbedded in muscle; (2) Sectioning of muscle with nerve with cryostat; (3) Chemical staining of tissue section of sciatic nerve with muscle tissue surrounded it; (4) Observation under fluorescent microscopy; (5) A Black and Gold staining of adjacent tissue section; and (6) Observation under regular microscope.
The staining of the sciatic nerve was confirmed by the Black and Gold staining of the adjacent tissue section (see FIG. 4).

[2] = test system: sciatic nerve (PNS myelin); assay: Ex vivo staining of sciatic nerve after tail vein injection, microscope and FLI; type: in vivo, wild type mouse; settings: post tail vein injection; tissue section under microscope
Source text: Ex Vivo Staining Procedure: (1) Injection of BDB via tail vein in wild type mouse; (2) Removal of sciatic nerve imbedded in muscle from right side; (3) Sectioning of muscle with nerve; (4) Observation of tissue under microscope to check staining; (5) Removal of left sciatic nerve from muscle; and (6) Observation of fluorescent in FLI machine.
An FLI machine picked up fluorescence from sciatic nerve placed in a tube with 4% paraformaldehyde (PFA) solution (FIG. 6).

CNS myelin = settings: previously shown; cited from earlier work
[3] = Solubility of BDB in organic solvents; type: physicochemical
[4] = Excitation and emission spectra (Cary Eclipse fluorescent spectrophotometer); type: physicochemical; settings: 1 μM in DMSO
Description: FIG. 2 illustrates excitation and emission spectra of (E,E)-1,4-bis(4-aminostyryl)-2-dimethoxy-benzene (BDB) (1 μM in […]). Excitation spectra: emission at 510 nm (range 300-500 nm), bandwidth at 5 nm, scan at 120 nm/mm, integration time 0.5 sec. and maximal excitation wavelength at 426 nm. Emission spectra: excitation at 426 nm (range 430-650 nm), bandwidth at 5 nm, scan at 120 nm/min. integration time of 0.5 sec. and maximal emission wavelength at 506 nm.
Excitation and emission spectra of BDB (1 μM in DMSO) recorded using a Cary Eclipse fluorescent spectrophotometer (Variant Inc.; Palo Alto, Calif.) are shown in FIG. 2. Maximal excitation and emission peaks were found at 426 nm and 506 nm, respectively.

[5] = test system: sciatic nerve (PNS myelin); assay: In vivo imaging of sciatic nerve by multiphoton microscope; set-up: species or system wild type mouse; settings: live anesthetized mouse, exposed sciatic nerve
Source text: In Vivo Staining Procedure: (1) Shave fur off region where sciatic nerve is located; (2) Cut soft tissue and muscle tissue covering sciatic nerve using surgical scissors; (3) Place animal under multiphoton microscope while anesthetized with isoflurane gas; and (4) Take live images of nerve.

maximal emission peak [4]: 506 nm | maximal excitation peak [4]: 426 nm
SMILES: COc1cc(/C=C/c2ccc(N)cc2)c(OC)cc1/C=C/c1ccc(N)cc1 [BDB, (E,E)-1,4-bis(4′-aminostyryl)-2-dimethoxy-benzene]
staining of sciatic nerve in vitro [1]: selectively stained the sciatic nerve | staining of sciatic nerve ex vivo [2]: successfully stained | binding to myelin and retention in CNS white matter (CNS myelin): selectively binds to myelin and is retained in CNS white matter | solubility [3]: soluble in CH2Cl2, DMSO, and in most other organic solvents | staining of intact myelin sheaths in peripheral nervous system tissue in vivo [5]: selectively stains intact myelin sheaths
